≈ marks a conversion by molar mass, not a printed value. *1 amine or outer side, *2 acyl side, *3 side chain or, on linkers, in order; H or OH if unused. Where a SMILES comes first, the peptide text is derived from it. Bridges are numbered along the chain shown (N, C = ends). [ ]: non-standard residue; d: D form. ξ: configuration not given here. Phe(3R-OH) = O=C([C@@H](N[*:1])[C@H](O[*:3])c1ccccc1)[*:2]; Phe(βR-NH) = O=C([C@@H](N[*:1])[C@H](N[*:3])c1ccccc1)[*:2]; Asn(3S-OH) = NC(=O)[C@@H](O)[C@H](N)C(=O)O; Leu(3R-OH) = CC(C)[C@@H](O)[C@H](N)C(=O)O; X1 = NC(=O)[C@@H](O)C(N[*:1])C(=O)[*:2]; d(tBuAla) = CC(C)(C)C[C@@H](N)C(=O)O; tBuAla = CC(C)(C)C[C@H](N)C(=O)O; aThr = C[C@H](O)[C@H](N)C(=O)O; ξS = NC(CO)C(=O)O; ξA = CC(N)C(=O)O
Columns and labels:
[1] = tested on: Enterococcus faecalis 27159; format: cell-based; conditions: 27159
Procedure: (§1) Determination of the Minimum Inhibitory Concentration (MIC):
(§2) The MIC is determined in the liquid dilution test in accordance with the NCCLS guidelines. Overnight cultures of Staphylococcus aureus 133, Enterococcus faecalis 27159, E. faecium 4147 and Streptococcus pneumoniae G9a are incubated with the described test substances in a 1:2 dilution series. The MIC determination is carried out with a cell count of 10^5 microbes per ml in Isosensitest medium (Difco, Irvine/USA), with the exception of S. pneumoniae which is tested in BHI broth (Difco, Irvine/USA) with 10% bovine serum with a cell count of 10^6 microbes per ml. The cultures are incubated at 37° C. for 18-24 hours, S. pneumoniae in the presence of 10% CO2.
(§3) The MIC is defined as the lowest concentration of each substance at which no visible bacterial growth occurs any longer. The MIC values are reported in μg/ml.

[2] = tested on: Staphylococcus aureus 133; format: cell-based; conditions: 133
Procedure: as §1, §2, §3

[3] = tested on: Streptococcus pneumoniae G9a; format: cell-based; conditions: G9a
Procedure: as §1, §2, §3

[4] = Chemical stability in alkaline aqueous solution (buffer pH 7.8, HPLC); format: physicochemical; conditions: aqueous neutral to basic medium (pH>7)
Procedure: Determination of the Chemical Stability in Stability Alkaline Aqueous Solution:
0.3 mg of the test substance are dissolved in a mixture of 0.25 ml of acetonitrile, 0.25 ml of DMSO and 0.5 ml of buffer of pH 7.8 (consisting of 111 mg (1 mmol) of calcium chloride, 7.91 g (100 mmol) of ammonium bicarbonate, 100 ml of acetonitrile ad 1000 ml) and left to stand at room temperature. A 5 μl aliquot is taken from the solution once an hour and analyzed by HPLC (method 57). The concentration of the test compound at time 0 h, indicated by the UV absorption (1E), is set equal to 100%, and the decrease over time is observed. At the same time, the increase in the ring-opened degradation product is observed.

[5] = amide bond; 28-membered ring; HATU/NMM; DMF; 0.0 °C

| Molecule | MIC E. faecalis ICB 27159 [1] [µg/mL] | MIC S. aureus 133 [2] [µg/mL] | MIC S. pneumoniae G9a [3] [µg/mL] | hydrolysis (opening of the lactone) in aqueous medium [4] | ring closure, crude yield [5] [%] |
| --- | --- | --- | --- | --- | --- |
| CC[C@H](C)[C@@H]1NC(=O)[C@@H](CCCNC(=N)N)NC(=O)[C@H](CC(C)C)NC(=O)[C@H]([C@H](O)C(C)C)NC(=O)[C@@H](NC(=O)[C@H](CC(C)C)NC(=O)[C@H](N)CC(C)C)[C@@H](c2ccccc2)OC(=O)[C@H](CO)NC(=O)[C@H]([C@H](O)C(N)=O)NC(=O)CNC(=O)[C@H]([C@H](C)O)NC1=O [Lysobactin, lysobactin] (H-[dL]L[Phe(3R-OH)][Leu(3R-OH)]L[dR]I[aThr]G[Asn(3S-OH)]S; ester 3-C (inferred); N-terminus assumed) | 0.5 (≈ 0.392 µM) | 0.5 (≈ 0.392 µM) | 0.063 (≈ 0.0494 µM) | hydrolyzed in an aqueous neutral to basic medium (pH>7) within days | – |
| [(3R)-N^2-(Benzyloxycarbonyl)-3-amino-L-phenylalanyl]-[(3R)-3-hydroxy-L-leucyl]-L-leucyl-D-arginyl-L-isoleucyl-L-allothreonyl-glycyl-L-allothreonyl-L-aserinate C^1.9-N^3.1-lactam trifluoroacetate | – | – | – | – | 86 |
| CC[C@H](C)[C@@H]1NC(=O)[C@@H](CCCNC(=N)N)NC(=O)[C@H](CC(C)C)NC(=O)[C@H]([C@H](O)C(C)C)NC(=O)[C@@H](NC(=O)[C@H](CC(C)(C)C)NC(=O)[C@H](N)CC(C)(C)C)[C@@H](c2ccccc2)NC(=O)[C@H](CO)NC(=O)C([C@H](O)C(N)=O)NC(=O)CNC(=O)[C@H](CO)NC1=O (stereo partly drawn) [Example 14, [3-tert-Butyl-D-alanyl]-[3-tert-butyl-L-alanyl]-[(3R)-3-amino-L-phenylalanyl]-[(3R)-3-hydroxy-L-leucyl]-L-leucyl-D-arginyl-L-isoleucyl-L-seryl-glycyl-[(3S)-3-hydroxy-L-asparaginyl]-L-serine C^1.11-N^3.3-lactam bistrifluoroacetate] (H-[d(tBuAla)][tBuAla][Phe(βR-NH)][Leu(3R-OH)]L[dR]ISG[X1]S; lactam 3-C) | 0.5 (≈ 0.388 µM) | 0.25 (≈ 0.194 µM) | 0.125 (≈ 0.0969 µM) | – | – |
| CC[C@H](C)[C@@H]1NC(=O)[C@@H](CCCNC(=N)N)NC(=O)[C@H](CC(C)C)NC(=O)[C@H]([C@H](O)C(C)C)NC(=O)[C@@H](NC(=O)[C@H](CC(C)(C)C)NC(=O)[C@H](N)CC(C)(C)C)[C@@H](c2cccnc2)NC(=O)C(CO)NC(=O)C([C@H](O)C(N)=O)NC(=O)CNC(=O)[C@H]([C@H](C)O)NC1=O (stereo partly drawn) [Example 44, [3-tert-Butyl-D-alanyl]-[3-tert-butyl-L-alanyl]-[(3R)-3-amino-3-(pyridin-3-yl)-L-alanyl]-[(3R)-3-hydroxy-L-leucyl]-L-leucyl-D-arginyl-L-isoleucyl-L-allothreonyl-glycyl-[(3S)-3-hydroxy-L-asparaginyl]-L-serine C^1.11-N^3.3-lactam tristrifluoroacetate] | 0.5 (≈ 0.383 µM) | 0.25 (≈ 0.192 µM) | 0.125 (≈ 0.0958 µM) | – | – |
| CC[C@H](C)[C@@H]1NC(=O)[C@@H](CCCNC(=N)N)NC(=O)[C@H](CC(C)C)NC(=O)[C@H]([C@H](O)C(C)C)NC(=O)[C@@H](NC(=O)[C@H](CC(C)(C)C)NC(=O)[C@H](N)CC(C)(C)C)[C@@H](c2ccccc2)NC(=O)C(CO)NC(=O)[C@H](CO)NC(=O)CNC(=O)[C@H](CO)NC1=O (stereo partly drawn) [Example 23, [3-tert-Butyl-D-alanyl]-[3-tert-butyl-L-alanyl]-[(3R)-3-amino-L-phenylalanyl]-[(3R)-3-hydroxy-L-leucyl]-L-leucyl-D-arginyl-L-isoleucyl-L-seryl-glycyl-L-seryl-L-serine C^1.11-N^3.3-lactam bistrifluoroacetate] (H-[d(tBuAla)][tBuAla][Phe(βR-NH)][Leu(3R-OH)]L[dR]ISGS[ξS]; lactam 3-C) | 1 (≈ 0.802 µM) | 0.5 (≈ 0.401 µM) | 0.25 (≈ 0.201 µM) | – | – |
| CC[C@H](C)[C@@H]1NC(=O)[C@@H](CCCNC(=N)N)NC(=O)[C@H](CC(C)C)NC(=O)[C@H]([C@H](O)C(C)C)NC(=O)[C@@H](NC(=O)[C@H](CC(C)(C)C)NC(=O)[C@H](N)CC(C)(C)C)[C@@H](c2ccccc2)NC(=O)[C@H](CO)NC(=O)C(C)NC(=O)CNC(=O)[C@H]([C@H](C)O)NC1=O (stereo partly drawn) [Example 13, [3-tert-Butyl-D-alanyl]-[3-tert-butyl-L-alanyl]-[(3R)-3-amino-L-phenylalanyl]-[(3R)-3-hydroxy-L-leucyl]-L-leucyl-D-arginyl-L-isoleucyl-L-allothreonyl-glycyl-L-alanyl-L-serine C^1.11-N^3.3-lactam bistrifluoroacetate] (H-[d(tBuAla)][tBuAla][Phe(βR-NH)][Leu(3R-OH)]L[dR]I[aThr]G[ξA]S; lactam 3-C) | 0.5 (≈ 0.402 µM) | 0.25 (≈ 0.201 µM) | 0.5 (≈ 0.402 µM) | – | – |
